Consider one compound from patent publication US7345033B2, “Carbamoyl-and thiocarbamoyl-phosphonates and pharmaceutical compositions comprising them” (Yissum Research Development Company of the Hebrew …, priority 2003, dated 2008).

Entries after “also recorded” stand apart in the source; their conditions may differ. Read-outs that look alike come from different tables or passages of the source.

One data set deals with T1, MMP-1 (Homo sapiens, UniProt P03956).
T1 sequence (P03956 100-469): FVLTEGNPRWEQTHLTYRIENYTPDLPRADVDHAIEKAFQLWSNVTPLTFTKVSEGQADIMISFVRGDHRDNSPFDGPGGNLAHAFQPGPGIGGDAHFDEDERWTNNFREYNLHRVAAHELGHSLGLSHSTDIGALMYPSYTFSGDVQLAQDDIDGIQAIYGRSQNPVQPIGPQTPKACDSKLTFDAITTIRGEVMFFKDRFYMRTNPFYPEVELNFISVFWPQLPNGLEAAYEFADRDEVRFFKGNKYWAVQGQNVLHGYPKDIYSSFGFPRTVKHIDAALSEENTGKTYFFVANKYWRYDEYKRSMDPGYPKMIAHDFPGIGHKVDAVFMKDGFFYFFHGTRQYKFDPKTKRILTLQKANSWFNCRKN
Put plainly: Selectivity towards different MMPs: MMP-1. Format: biochemical. The conditions noted are these: Table 2.

The next data set concerns murine melanoma. Description: Tumor growth and metastasis in vivo, murine melanoma model. Set-up: species or system mice. Conditions: Mus musculus, 504 h. The text has this:
Tumor Growth and Metastasis in Animal Models—in vivo Test
The abilities of the novel carbamoylphosphonates to inhibit the formation of metastatic lesions in vivo were examined in the murine melanoma model both by intraperitoneal (IP) and peroral (PO) administration. […] This is especially important, since oral administration is the most convenient one for the patient, especially for long term chronic treatments such as those envisaged for drugs that are the subject of this application.

In a further data set the test system is cancer cells. Put plainly: Matrigel chemoinvasion assay (Boyden chambers). The class given is cell-based. The conditions noted are these: 6 h, read-out: Chemoinvasion % inhibition at 50 μM. The text has this:
Matrigel Chemoinvasion Assay
This assay measures in vitro the potency of the compounds to repress the invasiveness of cancer cells, by inhibiting the MMPs produced by them. The assay uses a reconstituted basement membrane preparation, which is similar to the natural basement membranes that the tumor cells have to cross, in order to disseminate. The compounds examined have been added to the invasion chambers at various concentrations, and the resulted invasion was compared to untreated preparations.
Description of the of the Matrigel Chemoinvasion Experiment
a) The chemoinvasion assays were performed in Boyden chambers. Matrigel (25 μg) was dried on a polycarbonated filter (PVP free, Nucleopore). Fibroblast conditioned medium (obtained from confluent NIH-3T3 cells cultured in serum free DMEM) is used as the chemoattractant. […] The chambers were incubated in a humidified incubator at 37° C. in 5% CO2/95% air atmosphere for 6 h. The cells, which traversed the Matrigel layer and attached to the lower surface of the filter, were stained with Diff Quick (American Scientific Products) and counted.
The various compounds were examined as potential inhibitors at three concentrations: 100 μM, 50 μM and 10 μM.

Another data set deals with MMP-8 (Homo sapiens, UniProt P22894). Description: Selectivity towards different MMPs: MMP-8. Conditions: Table 2. The class given is biochemical.
Sequence of MMP-8 (P22894 101-467, species assumed): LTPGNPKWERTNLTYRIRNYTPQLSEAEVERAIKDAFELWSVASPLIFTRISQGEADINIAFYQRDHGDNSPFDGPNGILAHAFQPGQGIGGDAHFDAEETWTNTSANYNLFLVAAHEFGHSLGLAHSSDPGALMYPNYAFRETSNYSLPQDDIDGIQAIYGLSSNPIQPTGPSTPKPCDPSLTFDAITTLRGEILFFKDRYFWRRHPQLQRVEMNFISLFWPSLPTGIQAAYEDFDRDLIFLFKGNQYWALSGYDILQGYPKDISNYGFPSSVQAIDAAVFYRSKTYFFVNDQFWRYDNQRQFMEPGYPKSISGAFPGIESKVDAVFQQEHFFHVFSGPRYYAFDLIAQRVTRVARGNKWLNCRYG
In a further data set the test system is restenosis. Put plainly: Rabbit model of restenosis (balloon injury, hypercholesterolemic). Format: in vivo, New Zealand White rabbits. The conditions noted are these: IP, total 70 mg/kg in 5 doses on days -1, +1, +4, +6, +8; after 30 days. As to the method:
Rabbit Model of Restenosis
New Zealand White rabbits (Harlan Laboratories, Jerusalem, Israel) weighing 2.5 to 3.5 kg were used in accordance with the guidelines for animal care of the Hebrew University of Jerusalem and National Institutes of Health (USA). Animals were fed an atherogenic diet of 2% cholesterol and 6% peanut oil, starting 30 days before angioplasty. Hypercholesterolemia was ascertained (plasma cholesterol: 1200 mg/dL). Animals were anesthetized by xylazine (7 mg/kg) and ketamine (40 mg/kg). Heparin (200 U/kg), atropine (0.05 mg), and norfloxacin nicotinate (70 mg) were given. […] The control animals received saline. An investigator blinded to the type of experimental group performed the experiments. After euthanasia with pentothal, arteries were perfusion-fixed in situ with 150 mL of 4% formaldehyde solution (pH 7.4), processed for morphometric analysis, and stained with Verhoeff elastin staining, Mayer hematoxylin and eosin, and modified Movat pentachrome. Five animals were used in the experiment and five in the control group.
The marked inhibition of restenosis is unparalleled to other therapeutic modalities in this model (various antiinflammatories or antiproliferative agents). […] It should be noted that the larger lumen in the treatment group was achieved despite the general smaller size of the artery.

The target in the next data set is MMP-3 (Homo sapiens, UniProt P08254). Put plainly: Selectivity towards different MMPs: MMP-3. Conditions: Table 2. Format: biochemical.
Sequence of MMP-3 (P08254 100-477, species assumed): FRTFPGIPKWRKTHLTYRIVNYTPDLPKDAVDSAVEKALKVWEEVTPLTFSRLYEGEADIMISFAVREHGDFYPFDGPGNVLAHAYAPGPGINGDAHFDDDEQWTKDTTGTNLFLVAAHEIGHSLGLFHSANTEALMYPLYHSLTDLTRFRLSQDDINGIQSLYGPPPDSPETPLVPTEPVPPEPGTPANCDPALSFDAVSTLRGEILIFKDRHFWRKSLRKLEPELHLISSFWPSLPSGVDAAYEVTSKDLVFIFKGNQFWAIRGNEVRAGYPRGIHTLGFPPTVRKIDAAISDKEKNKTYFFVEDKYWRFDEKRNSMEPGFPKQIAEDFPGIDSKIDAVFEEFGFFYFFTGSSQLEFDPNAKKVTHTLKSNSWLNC
For the next data set, the target named is T2, recombinant MMP-9 (Homo sapiens, UniProt P14780).
T2 construct: purchased
T2 sequence (P14780 94-707, species assumed): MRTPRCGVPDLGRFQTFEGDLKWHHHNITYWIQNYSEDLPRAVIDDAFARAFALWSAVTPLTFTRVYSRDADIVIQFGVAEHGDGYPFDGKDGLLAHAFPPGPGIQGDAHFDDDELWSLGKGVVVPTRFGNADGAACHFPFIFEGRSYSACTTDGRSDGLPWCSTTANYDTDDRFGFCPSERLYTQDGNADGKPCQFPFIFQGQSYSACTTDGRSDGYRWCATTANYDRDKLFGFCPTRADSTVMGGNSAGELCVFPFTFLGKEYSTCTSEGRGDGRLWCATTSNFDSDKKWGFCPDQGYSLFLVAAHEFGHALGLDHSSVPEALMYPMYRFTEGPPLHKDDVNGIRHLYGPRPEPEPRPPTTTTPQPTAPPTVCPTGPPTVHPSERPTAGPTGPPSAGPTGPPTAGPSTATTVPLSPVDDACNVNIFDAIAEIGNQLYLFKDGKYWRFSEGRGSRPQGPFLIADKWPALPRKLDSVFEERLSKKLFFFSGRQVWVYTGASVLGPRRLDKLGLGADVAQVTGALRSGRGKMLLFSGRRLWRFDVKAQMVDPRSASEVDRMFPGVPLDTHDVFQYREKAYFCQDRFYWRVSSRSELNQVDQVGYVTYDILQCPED
Put plainly: MMP inhibitory potency in vitro, succinylated-gelatin colorimetric assay. The class given is biochemical. As to the method:
(§1) Determination of MMP Inhibitory Potency (IC50 Values) in vitro
(§2) The commercially available recombinant MMP-2 and MMP-9 enzymes were incubated with succinylated-gelatin at four different concentrations for 3 h. The examined compounds were added at four to six different concentrations to the recombinant enzymes and the inhibitory potencies were expressed in a colorimetric change measured by an ELISA reader. The inhibitory activity (IC50) was calculated from the kinetic data obtained.

For another data set, the target named is T3, recombinant MMP-2 (Homo sapiens, UniProt P08253).
T3 construct: purchased
T3 sequence (P08253 110-660): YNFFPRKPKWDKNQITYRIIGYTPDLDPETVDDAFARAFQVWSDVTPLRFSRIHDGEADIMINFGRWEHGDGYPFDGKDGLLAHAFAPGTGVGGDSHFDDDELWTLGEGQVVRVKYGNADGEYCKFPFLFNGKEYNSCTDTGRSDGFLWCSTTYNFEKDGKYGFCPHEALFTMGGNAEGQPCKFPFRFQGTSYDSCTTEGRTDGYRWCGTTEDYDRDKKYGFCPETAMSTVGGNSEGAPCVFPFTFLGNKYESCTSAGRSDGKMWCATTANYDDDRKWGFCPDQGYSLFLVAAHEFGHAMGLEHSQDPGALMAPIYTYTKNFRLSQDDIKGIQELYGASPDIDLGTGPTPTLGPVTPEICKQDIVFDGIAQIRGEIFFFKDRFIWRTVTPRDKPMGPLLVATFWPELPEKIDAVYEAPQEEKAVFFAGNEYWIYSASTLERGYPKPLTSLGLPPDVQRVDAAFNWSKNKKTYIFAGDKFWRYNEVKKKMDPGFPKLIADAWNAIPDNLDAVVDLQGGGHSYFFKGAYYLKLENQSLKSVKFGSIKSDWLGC
Described as above. The class given is biochemical. As to the method:
as §1, §2

A further data set deals with Endothelial cells. Description: Endothelial cell capillary tube formation. The conditions noted are these: read-out: Capillary Formation Inhibition % At 50 μM. Format: cell-based. The text has this: Endothelial Cell Capillary Tube Formation
Some of the compounds were examined as to their potency to inhibit capillary formation, which is an in vitro model of angiogenesis, an essential step in the development of primary tumor and metastatic lesions. Endothelial cell migration to the newly formed tumor is the initial phase of angiogenesis, and is dependent on MMP expression. By using this assay that measures endothelial cell tube formation, the effects of some carbamoylphosphonates on angiogenesis at concentrations ranging from 100-5 μM were evaluated.
Description of the Endothelial Cell Capillary Tube Formation Experiment
Endothelial cells are harvested by 1 mM EDTA, and added to a Matrigel layer in a 24 well plate at 50,000 cells per well. After attachment, culture media (1 ml) is added and the plate is incubated as a monolayer culture. The plates are analyzed hourly using Hoffinan optics. This assay is used to evaluate inhibitory factors or stimulatory factors on capillary like structure formation, which may be added into the culture media.

In data set [1] the test system is Human prostate tumor cells DU145, PC3 or LMCap. Put plainly: Orthotopic prostate tumor model. Format: in vivo, mice. Conditions: 50 mg/kg IP daily for 5 weeks, vs untreated control. As to the method: Human prostate tumor cells DU145, PC3 or LMCap transfected with a luciferase gene were injected orthotopically into the prostate of male mice (2×10^6 cells/mouse). […] The mice were monitored for local tumor growth and metastasis formation with a cooled charged coupled device camera (CCCD) sensitive to photons, weekly, starting 14 days after tumor implantation. The emitted photons are converted into a digitalized image proportional to the amount of photons emitted by the tumor cell upon exposure to luciferin.

A short description of data set [2]: Acute in vivo toxicity in healthy mice. Conditions: daily for two weeks at 50, 250 and 500 mg/kg. The text has this:
Determination of Acute in vivo Toxicity of Representative Carbamoylphosphonates

As for `N[C@@H]1CCCC[C@@H]1NC(=O)P(=O)(O)O` (relative stereo) [Compound 11, N-(cis-2-aminocyclohexyl)carbamoylphosphonic acid], the IC50 at MMP-1 is over 100 µM; at MMP-8 it was over 100 µM; against MMP-3, over 100 µM; on recombinant MMP-9, 20 µM; on recombinant MMP-2, 0.06 µM. The inhibition in vivo at 50 mg/kg stood at 77% in the data set with murine melanoma (ip, read-out: In vivo murine melanoma % reduction IP) and 86% in the data set with murine melanoma (po, read-out: In vivo murine melanoma % reduction PO). The inhibition at 50 µM with cancer cells is 62%; in the data set with Endothelial cells, 72%. Besides, in the data set on restenosis, the inhibition of restenosis result was “significant and marked inhibition of restenosis; also recorded: selective in vivo activity against restenosis”. The “tumor dissemination (metastatic spread)” value in [1] is listed as “significantly lower tumor dissemination”. For the same compound, the “tumor volume (local tumor growth)” value in data set [1] was “significantly lower tumor volume”. Moreover, in data set [2], the toxicity entry is recorded as “devoid of any toxicity even at 10 times the effective dose, namely at 500 mg/kg”.
